Converted amounts (≈) assume the structure as drawn. “Also recorded” adds a separate entry of the source. Read-outs that look alike come from different tables or passages of the source.
Experiments:
[1] = test system: Leukemia L-1210 cells; assay: Antitumor activity against leukemia L-1210 in CDF1 mice, 60-day observation (Test Example 1); format: in vivo, mouse; conditions: for % Increase in life-span (T/C, %): 9 days, 60 d observation, '>' = at least one of four mice survived 60 days; for development of toxicity (in words): 2.5 to 5 mg/kg/day for daunomycin, adriamycin, 0.3 to 1.25 mg/kg/day for Compound (b), low dosages for formula (I)
Description: Thus, to evaluate the antitumor effects of the new compounds of this invention against experimental tumors in animals, CDF1 mice (four mice per group) were intraperitoneally transplanted with cells of Leukemia L-1210 at an amount of 1×10^5 cells/mouse. Since an elapsed time of 24 hours from the transplantation of the leukemia cells, a test compound according to this invention was administered intraperitoneally to the mice under test for 9 consecutive days once per day. […] While, mice of the control group (the untreated group) were administered with only physiological saline after the transplantation of the L-1210 cells. During the observation period, the numbers of the surviving mice in the treated group and in the control group were counted, and the mean survival days of mice in the treated group and in the control group were then calculated. From the mean survival day (C) of the untreated mice of the control group and the mean survival day (T) of the treated mice of the treated group, there were evaluated percentages (%) of the increase in the life-span of the treated mice, as T/C %. For a comparison purpose, 7-O-(2,6-dideoxy-2-fluoro-α-L-talopyranosyl)daunomycinone (abbreviation: FT-DM); 7-O-(2,6-dideoxy-2-fluoro-α-L-talopyranosyl)adriamycinone (abbreviation: FT-ADM); daunomycin and adriamycin were also tested in the same manner as above. Incidentally, the mean survival day of mice of the control group (the untreated group) was amounting to 8 to 9 days, and the mean survival day of mice of the comparative groups having received the administration of adriamycin was varying dependently on the dosage of adriamycin.

[2] = test system: P388 cells; assay: In vitro inhibition of growth of P388 cells, 72 hours (Test Example 3); format: cell-based, mouse; conditions: for IC50: Mus musculus; for antitumor activity against P388 cell (in words): compared with other compounds
Description: (§1) Furthermore, in order to estimate the antitumor activities of Compound (a) and Compound (b) of this invention represented by the general formula (I), as well as the adriamycinone derivative represented by the formula (II) (namely, Compound (c) of this invention), some "in vitro" tests for inhibiting proliferation of cancer cells were conducted as shown below.
(§2) The above-mentioned Compound (a), Compound (b) or Compound (c) according to this invention were added at varying concentrations to mouse leukemia, P388 cells or adriamycin-resistant P388 cells (P388/ADR) which had been incubated in test tubes containing an appropriate culture medium. The incubation of the tumor cells were then continued for 72 hours from the addition of the test compound, and determination was made to evaluate such concentrations of the test compound which could inhibit the growth of the leukemia cells by 50% (namely, IC50' ng/ml). FT-DM, FT-ADM and adriamycin (as the hydrochloride) were used as comparative compounds and were tested in the same manner as above.

[3] = test system: adriamycin-resistant P388 cells (P388/ADR); assay: In vitro inhibition of growth of adriamycin-resistant P388 cells, 72 hours (Test Example 3); format: cell-based, mouse; conditions: for IC50: Mus musculus, P388/ADR, 72 hours; for growth inhibition of P388/ADR cell (in words): compared with adriamycin, FT-DM, FT-ADM
Description: as §1, §2

[4] = test system: Leukemia L-1210 cells; assay: Antitumor activity against leukemia L-1210 in CDF1 mice, 30-day observation (Test Example 2); format: in vivo, mouse; conditions: for mice surviving 30 days / mice tested / % Increase in life-span (T/C, %): 9 days; for % Increase in life-span (T/C, %): 30 d observation, '>' = at least one of four mice survived 30 days
Description: Since an elapsed time of 24 hours from the transplantation of the leukemia cells, Compound (c) of this invention was administered intraperitoneally to the mice under test for 9 consecutive days once per day. […] While, mice of the control group (the untreated group) were administered with only physiological saline after the transplantation of the L-1210 cells. During the observation period, the numbers of the surviving mice in the treated group and the control group were counted, and the mean survival days of mice in the treated group and in the control group were then calculated. From the mean survival day (C) of the untreated mice of the control group and the mean survival day (T) of the treated mice of the treated group, there were evaluated percentages (%) of the increase in the life-span of the treated mice as T/C %. For a comparison purpose, adriamycin was also tested in the same manner as above.

[5] = human, in vivo; cited from earlier work
[6] = 0.3 mg/kg/day to 1.25 mg/kg/day, about 300% or more

| SMILES | % Increase in life-span (T/C, %) ([1]; 0.15 mg/kg/day i.p.) [%] | % Increase in life-span (T/C, %) ([1]; 0.3 mg/kg/day i.p.) [%] | % Increase in life-span (T/C, %) ([1]; 0.6 mg/kg/day i.p.) [%] | % Increase in life-span (T/C, %) ([1]; 1.25 mg/kg/day i.p.) [%] | % Increase in life-span (T/C, %) ([1]; 2.5 mg/kg/day i.p.) [%] | % Increase in life-span (T/C, %) ([1]; 5 mg/kg/day i.p.) [%] | IC50 ([2]; P388, 72 hours, read-out: IC50) [µg/mL] | IC50 [3] [µg/mL] | antitumor activity against P388 cell (in words) [2] | growth inhibition of P388/ADR cell (in words) [3] | antitumor activity in vivo (in words) [1] | development of toxicity (in words) [1] | other results |
| --- | --- | --- | --- | --- | --- | --- | --- | --- | --- | --- | --- | --- | --- |
| COc1cccc2c1C(=O)c1c(O)c3c(c(O)c1C2=O)C[C@@](O)(C(C)=O)C[C@@H]3O[C@@H]1O[C@@H](C)[C@@H](O)[C@@H](O)[C@H]1F [FT-DM, 7-O-(2,6-dideoxy-2-fluoro-α-L-talopyranosyl)daunomycinone] | 105 | 105 | 125 | 171 | 217 | 184 | 0.033 (≈ 0.0604 µM) | 0.15 (≈ 0.274 µM) | – | – | – | – | – |
| COc1cccc2c1C(=O)c1c(O)c3c(c(O)c1C2=O)C[C@@](O)(C(=O)CO)C[C@@H]3O[C@@H]1O[C@@H](C)[C@@H](O)[C@@H](O)[C@H]1F [FT-ADM, 7-O-(2,6-dideoxy-2-fluoro-α-L-talopyranosyl)adriamycinone] | 127 | 182 | 185 | 275 | > 352 | > 740 | 0.0034 (≈ 0.00604 µM) | 0.0928 (≈ 0.165 µM) | – | – | – | – | – |
| COc1cccc2c1C(=O)c1c(O)c3c(c(O)c1C2=O)C[C@@](O)(C(=O)CO)C[C@@H]3O[C@H]1C[C@H](O)[C@H](O)[C@H](C(F)(F)F)O1 [Compound (c), 7-O-(2,6-dideoxy-6,6,6-trifluoro-α-L-lyxo-hexopyranosyl)adriamycinone] | – | – | – | – | – | – | < 0.0098 | 0.17 (≈ 0.284 µM) | to a substantially same degree as that of Compound (b) | higher antitumor activities than adriamycin | – | – | mice surviving 30 days / mice tested ([4]; 0.15 mg/kg/day i.p.): 3/4; % Increase in life-span (T/C, %) ([4]; 0.15 mg/kg/day i.p.): > 335%; mice surviving 30 days / mice tested ([4]; 0.3 mg/kg/day i.p.): 3/4; % Increase in life-span (T/C, %) ([4]; 0.3 mg/kg/day i.p.): > 329%; percentages of increase in the life-span [4, 6]: ≥ 300%; mice surviving 30 days / mice tested ([4]; 0.6 mg/kg/day i.p.): 2/4; % Increase in life-span (T/C, %) ([4]; 0.6 mg/kg/day i.p.): > 283%; % Increase in life-span (T/C, %) ([4]; 1.25 mg/kg/day i.p.): 203%; % Increase in life-span (T/C, %) ([4]; 2.5 mg/kg/day i.p.): 194%; % Increase in life-span (T/C, %) ([4]; 5 mg/kg/day i.p.): 135%; complete curing (in words) ([4]; 0.3 to 1.25 mg/kg/day): some cases of the complete curing of the L-1210 cell-inoculated mice; development of toxicity (in words) ([4]; 0.3 to 1.25 mg/kg/day, low dosages): not accompanied by development of toxicity; antitumor activity in vivo (in words) ([4]; 0.6 to 0.15 mg/kg): very much higher anticancer or antitumor activities than those of adriamycin; mice which could survive for 30 days ([4]; amongst totally 12 test mice, 0.6 to 0.15 mg/kg): 8 mice; concentration inhibiting growth of P388/ADR (IC50) relative to that of adriamycin ([3]; 1/3-folds lower than that of adriamycin): 1/3 |
| COc1cccc2c1C(=O)c1c(O)c3c(c(O)c1C2=O)C[C@@](O)(C(C)=O)C[C@@H]3O[C@@H]1O[C@@H](C(F)(F)F)[C@@H](O)[C@@H](O)[C@H]1F [Compound (a), 7-O-(2,6-dideoxy-2,6,6,6-tetrafluoro-α-L-talopyranosyl)daunomycinone] | 106 | 119 | 132 | 294 | 210 | 158 | – | 0.028 (≈ 0.0466 µM) | – | can inhibit the growth of P388/ADR cell at the remarkedly lower concentrations than adriamycin; also recorded: at the substantially same concentrations as or at the lower concentrations than FT-DM and FT-ADM | much higher therapeutic effects against the L-1210 leukemia than daunomycin; also recorded: at low dosages of 0.6 to 1.25 mg/kg exhibited much higher therapeutic effects than FT-DM | – | IC50 ([2]; P388, 72 h): < 0.0098 µg/mL |
| COc1cccc2c1C(=O)c1c(O)c3c(c(O)c1C2=O)C[C@@](O)(C(C)=O)C[C@@H]3O[C@H]1C[C@H](N)[C@H](O)[C@H](C)O1 [Daunomycin, daunomycin] | 132 | 112 | 145 | 158 | 171 | 138 | – | – | – | – | – | accompanied by development of toxicity | serious side-effects (in words) [5]: serious side-effects such as leukocytopenia, alopecia, myocardiopathy and others |
| COc1cccc2c1C(=O)c1c(O)c3c(c(O)c1C2=O)C[C@@](O)(C(=O)CO)C[C@@H]3O[C@@H]1O[C@@H](C(F)(F)F)[C@@H](O)[C@@H](O)[C@H]1F [Compound (b), 7-O-(2,6-dideoxy-2,6,6,6-tetrafluoro-α-L-talopyranosyl)adriamycinone] | 144 | > 407 | > 459 | > 348 | 233 | 128 | < 0.0098 | 0.043 (≈ 0.0698 µM) | to a substantially same degree as that of FT-ADM | can inhibit the growth of P388/ADR cell at the remarkedly lower concentrations than adriamycin; also recorded: at the substantially same concentrations as or at the lower concentrations than FT-DM and FT-ADM | remarkedly higher antitumor effects in mice than FT-ADM; also recorded: extraordinarily higher anticancer or antitumor activities than those of adriamycin; also recorded: enhanced anticancer or antitumor activities over the whole range of low dosages of from 0.15 to 1.25 mg/kg of Compound (b), as compared with the comparative drug, FT-ADM | not accompanied by development of toxicity | percentages of increase in the life-span [1, 6]: ≥ 300%; survival for 60 days / cure (in words) ([1]; 0.3 to 1.25 mg/kg): some cases of the complete curing of the L-1210 cell-inoculated mice; also recorded: the mouse which could survive for 60 days (namely, the mouse as fully cured from the leukemia) can be observed |

— patent US5719130A, “Anthracycline derivative having a trifluoromethylated sugar” (Zaidan Hojin Biseibutsu Kagaku Kenkyu Kai, priority 1994, dated 1998)
